Measured values reported in patent US8440654B2, “Thieno- and furo-pyrimidine modulators of the histamine H4 receptor” (Janssen Pharmaceutica NV, priority 2007, dated 2013).
Where a name gives a salt, the structure may show the parent alone.

Target: T1, human histamine H4 receptor (Homo sapiens, UniProt Q9H3N8)
T1 construct: expressed in transfected cells; host or cells: SK-N-MC cells or COS7 cells, transiently transfected with pH4R; membrane preparation
Assay: Binding Assay on Recombinant Human Histamine H4 Receptor
Conditions: competition binding with 3H-histamine, membranes of SK-N-MC or COS7 cells transfected with human H4R; average of results obtained
Procedure: Biological Methods: Binding Assay on Recombinant Human Histamine H4 Receptor.
SK-N-MC cells or COS7 cells were transiently transfected with pH4R and grown in 150 cm^2 tissue culture dishes. Cells were washed with saline solution, scraped with a cell scraper and collected by centrifugation (1000 rpm, 5 min). Cell membranes were prepared by homogenization of the cell pellet in 20 mM Tris-HCl with a polytron tissue homogenizer for 10 sec at high speed. Homogenate was centrifuged at 1000 rpm for 5 min at 4° C. The supernatant was then collected and centrifuged at 20,000×g for 25 min at 4° C. The final pellet was resuspended in 50 mM Tris-HCl. Cell membranes were incubated with ^3H-histamine (5-70 nM) in the presence or absence of excess histamine (10,000 nM). Incubation occurred at room temperature for 45 min. Membranes were harvested by rapid filtration over Whatman GF/C filters and washed 4 times with ice-cold 50 mM Tris HCl. Filters were then dried, mixed with scintillant and counted for radioactivity. SK-N-MC or COS7 cells expressing human histamine H4 receptor were used to measure the affinity of binding of other compounds and their ability to displace ^3H-ligand binding by incubating the above-described reaction in the presence of various concentrations of inhibitor or compound to be tested. For competition binding studies using ^3H-histamine, K values were calculated, based on an experimentally determined KD value of 5 nM and a ligand concentration of 5 nM, according to Y.-C.

Row | Molecule | Ki [nM]
1 | NCCNc1nc(N)nc2c3c(sc12)CCC(F)(F)C3 [Example 128, N^4-(2-Aminoethyl)-8,8-difluoro-6,7,8,9-tetrahydro[1]benzothieno[3,2-d]pyrimidine-2,4-diamine hydrochloride] | 150
2 | Cc1csc2c(N3CCN(C)CC3)nc(N)nc12 [Example 13, 7-Methyl-4-(4-methyl-piperazin-1-yl)thieno-amine trifluoroacetic acid salt] | 574
3 | CN1CCN(c2nc(N)nc3c4c(sc23)CCCCC4)CC1 [Example 46, 4-(4-Methylpiperazin-1-yl)-7,8,9,10-tetrahydro-6H-cyclohepta[4,5]thieno[3,2-d]pyrimidin-2-amine tri-fluoroacetic acid salt] | 21
4 | CN[C@H]1CCN(c2nc(N)nc3c4c(sc23)CCC(F)(F)C4)C1 [Example 112, 8,8-Difluoro-4-[(3S)-3-(methylamino)pyrrolidin-1-yl]-6,7,8,9-tetrahydro[1]benzothieno[3,2-d]pyrimidin-2-amine trifluoroacetate] | 6
5 | 4-[(1S,4S)-2,5-Diazabi- cyclo]2.2.1-2-yl]hept-2-yl]- 6,7,8,9-tetrahydro[1]benzo- thieno[3,2-d]pyrimidin-2- amine [Example 35] | 417
6 | CN1CCN(c2ncnc3c4c(oc23)CCCC4)CC1 [Example 8, 4-(4-Methyl-piperazin-1-yl)-6,7,8,9-tetrahydro-benzo[4,5]furo[3,2-d]pyrimidine] | 53
7 | Nc1nc(N2C[C@H]3CNC[C@H]3C2)c2sc3c(c2n1)CC(F)(F)CC3 [Example 129, 8,8-Difluoro-4-[(3aR,6aS)-hexahydropyrrolo[3,4-c]pyrrol-2(1H)-yl]-6,7,8,9-tetrahydro[1]benzothieno[3,2-d]pyrimidin-2-amine (free amine)] | 680
8 | Nc1nc(N2CCNCC2)c2oc3c(c2n1)CC(F)(F)CC3 [Example 118, 8,8-Difluoro-4-piperazin-1-yl-6,7,8,9-tetrahydro[1]benzofuro[3,2-d]pyrimidin-2-amine hydrochloride] | 29
9 | Nc1nc(N2CC3CCC(C2)N3)c2oc3c(c2n1)CCCC3 [Example 26, 4-(3,8-Diazabi-cyclo[3.2.1]oct-3-yl)-6,7,8,9-tetrahydro[1]benzofuro[3,2-d]pyrimidin-2-amine] | 32
10 | CN1CCN(c2nc(N)nc3ccsc23)CC1 [Example 1, 4-(4-Methyl-piperazin-1-yl)-thieno[3,2-d]pyrimidin-2-ylamine] | 503
11 | CN[C@@H]1CCN(c2nc(N)nc3c4c(sc23)CCC(F)(F)C4)C1 [Example 59, 8,8-Difluoro-4-[(3R)-3-(methylamino)pyrrolidin-1-yl]-6,7,8,9-tetrahydro[1]benzothieno[3,2-d]pyrimidin-2-amine trifluoroacetic acid salt] | 9
12 | Nc1nc(N2C[C@H]3CCCN[C@H]3C2)c2oc3c(c2n1)CCCC3 [Example 20, 4-[(4aR,7aR)-Octahydro-6H-pyrrolo[3,4-b]pyridin-6-yl]-6,7,8,9-tetra-hydro[1]benzofuro[3,2-d]pyrimidin-2-amine trifluoroacetic acid salt] | 5
13 | CN[C@H]1CCN(c2nc(N)nc3c4c(sc23)CCC(C)C4)C1 (stereo partly drawn) [Example 44, 8-Methyl-4-[(3R)-3-(methyl-amino)pyrrolidin-1-yl]-6,7,8,9-tetrahydro[1]benzo-thieno[3,2-d]pyrimidin-2-amine trifluoroacetic acid salt] | 11
14 | Nc1nc(N2CCCNCC2)c2oc3c(c2n1)CC(F)(F)CC3 [Example 130, 4-(1,4-Diazepan-1-yl)-8,8-difluoro-6,7,8,9-tetrahydro[1]benzofuro[3,2-d]pyrimidin-2-amine (free amine)] | 8.2
15 | c1nc(N2CCNCC2)c2sc3c(c2n1)CCCC3 [Example 11, 4-piperazin-1-yl-6,7,8,9-tetrahydro-benzo[4,5]thieno[3,2-d]pyrimidine] | 454
16 | CC(C)(C)c1cc2nc(N)nc(N3CCC(N)C3)c2s1 (stereo in doubt) [Example 18, 4-[(3R)-3-Aminopyrrolidin-1-yl]-6-tert-butylthieno[3,2-d]pyrimidin-2-amine trifluoroacetic acid salt] | 221
17 | Nc1nc(N2CCCNCC2)c2oc3c(c2n1)CCCC3 [Example 22, 4-(1,4-Diazepan-1-yl)-6,7,8,9-tetrahydro[1]benzo-furo[3,2-d]pyrimidin-2-amine trifluoroacetic acid salt] | 3
18 | CNC1CCN(c2nc(N)nc3c(C)csc23)C1 (stereo in doubt) [Example 12, 7-Methyl-4-[(3R)-3-(methylamino)pyrrolidin-1-yl]thieno[3,2-d]pyrimidin-2-amine] | 182

Continued by falling Ki, values first:

Row | Ki [nM] | Molecule
19 | 1610 | Nc1nc(N2CCn3cnnc3C2)c2sc3c(c2n1)CCCC3 [Example 54, 4-(5,6-Dihydro[1,2,4-a]pyrazin-7(8H)-yl)-6,7,8,9-tetrahydro[1]benzothieno[3,2-d]pyrimidin-2-amine trifluoroacetic acid salt]
20 | 1010 | NC[C@H]1CCN(c2nc(N)nc3c4c(sc23)CCCC4)C1 [Example 41, 4-[(3R)-3-(Amino-methyl)pyrrolidin-1-yl]-6,7,8,9-tetrahydro[1]benzo-thieno[3,2-d]pyrimidin-2-amine trifluoroacetic acid salt]
21 | 647 | CC(C)N1CCN(c2nc(N)nc3c4c(sc23)CCCC4)CC1 [Example 50, 4-[4-(1-Methylethyl)piper-azin-1-yl]-6,7,8,9-tetrahy-dro[1]benzothieno[3,2-d]pyrimidin-2-amine trifluoroacetic acid salt]
22 | 507 | NCCNc1nc(N)nc2c3c(oc12)CCCC3 [Example 25, N4-(2-Aminoethyl)-6,7,8,9-tetrahydro[1]benzofuro[3,2-d]pyrimidine-2,4-diamine trifluoroacetic acid salt]
23 | 142 | CC(C)(C)c1cc2nc(N)nc(N3CCNCC3)c2s1 [Example 17, 6-tert-Butyl-4-piperazin-1-ylthieno[3,2-d]pyrimidin-2-amine trifluoroacetic acid salt]
24 | 132 | CN1CCN(c2ncnc3c4c(sc23)CCCC4)CC1 [Example 10, 4-(4-Methyl-piperazin-1-yl)-6,7,8,9-tetrahydro-benzo[4,5]thieno[3,2-d]pyrimidine]
25 | 123 | Nc1nc(N2CCC[C@H](N)C2)c2sc3c(c2n1)CCCC3 [Example 34, 4-[(3S)-3-Aminopiperidin-1-yl]-6,7,8,9-tetrahydro[1]ben-zothieno[3,2-d]pyrimidin-2-amine]
26 | 35 | CC1(C)CCc2sc3c(N4CCCNCC4)nc(N)nc3c2C1 [Example 132, 4-(1,4-Diazepan-1-yl)-8,8-dimethyl-6,7,8,9-tetrahydro[1]benzothieno[3,2-d]pyrimidin-2-amine trifluoroacetate]
27 | 23 | Nc1nc(N2CCNCC2)c2sc3c(c2n1)CCCC3 [Example 3, 4-piperazin-1-yl-6,7,8,9-tetrahydro-benzo[4,5]thieno[3,2-d]pyrimidin-2-ylamine]
28 | 23 | CN1CCN(c2nc(N)nc3c4c(sc23)CCC(F)(F)C4)CC1 [Example 57, 8,8-Difluoro-4-(4-methyl-piperazin-1-yl)-6,7,8,9-tetrahydro[1]benzothieno[3,2-d]pyrimidin-2-amine trifluoroacetic acid salt]
29 | 7.6 | CN[C@@H]1CCN(c2nc(N)nc3c4c(sc23)CCC(C)(C)C4)C1 [Example 134, 8,8-Dimethyl-4-[(3R)-3-(methylamino)pyrrolidin-1-yl]-6,7,8,9-tetrahydro[1]benzothieno[3,2-d]pyrimidin-2-amine hydrochloride]
30 | 7 | CC1CCc2sc3c(N4CCN(C)CC4)nc(N)nc3c2C1 (centres unmarked) [Example 43, 8-Methyl-4-(4-methyl-piperazin-1-yl)-6,7,8,9-tetrahydro[1]benzo-thieno[3,2-d]pyrimidin-2-amine trifluoroacetic acid salt]
31 | 6.8 | Nc1nc(N2CC[C@@H](N)C2)c2oc3c(c2n1)CC(F)(F)CC3 [Example 117, 4-[(3R)-3-Aminopyrrolidin-1-yl]-8,8-difluoro-6,7,8,9-tetrahydro[1]benzofuro[3,2-d]pyrimidin-2-amine hydrochloride]
32 | 5 | CN[C@H]1CCN(c2nc(N)nc3c4c(sc23)CCCC4)C1 (single isomer, unassigned) [Example 31]
33 | 3 | CNC1CCN(c2nc(N)nc3c4c(oc23)CCCC4)C1 (stereo in doubt) [Example 21, 4-[(3R)-3-(Methyl-amino)pyrrolidin-1-yl]-6,7,8,9-tetrahydro[1]benzo-furo[3,2-d]pyrimidin-2-amine trifluoro acid salt]
34 | 1.1 | Nc1nc(N2CC[C@@H](N)C2)c2sc3c(c2n1)CC(F)(F)CC3 [Example 113, 4-[(3R)-3-Aminopyrrolidin-1-yl]-8,8-difluoro-6,7,8,9-tetrahydro[1]benzothieno[3,2-d]pyrimidin-2-amine hydrochloride]
35 | 0.48 | CN[C@@H]1CCN(c2nc(N)nc3c4c(oc23)CCC(F)(F)C4)C1 [Example 116, 8,8-Difluoro-4-[(3R)-3-(methylamino)pyrrolidin-1-yl]-6,7,8,9-tetrahydro[1]benzofuro[3,2-d]pyrimidin-2-amine hydrochloride]
